According to ChEMBL document CHEMBL5113368, “Meroterpenoids produced by fungi: Occurrence, structural diversity, biological activities, and their molecular targets” (Eur J Med Chem, 2021):

Tests used:
[1] = biological target: T1, Tyrosine-protein kinase JAK3 (Homo sapiens, UniProt P52333); test: Inhibition of JAK3 (unknown origin) by FRET-based Z'-Lyte assay
T1 sequence (P52333 whole entry): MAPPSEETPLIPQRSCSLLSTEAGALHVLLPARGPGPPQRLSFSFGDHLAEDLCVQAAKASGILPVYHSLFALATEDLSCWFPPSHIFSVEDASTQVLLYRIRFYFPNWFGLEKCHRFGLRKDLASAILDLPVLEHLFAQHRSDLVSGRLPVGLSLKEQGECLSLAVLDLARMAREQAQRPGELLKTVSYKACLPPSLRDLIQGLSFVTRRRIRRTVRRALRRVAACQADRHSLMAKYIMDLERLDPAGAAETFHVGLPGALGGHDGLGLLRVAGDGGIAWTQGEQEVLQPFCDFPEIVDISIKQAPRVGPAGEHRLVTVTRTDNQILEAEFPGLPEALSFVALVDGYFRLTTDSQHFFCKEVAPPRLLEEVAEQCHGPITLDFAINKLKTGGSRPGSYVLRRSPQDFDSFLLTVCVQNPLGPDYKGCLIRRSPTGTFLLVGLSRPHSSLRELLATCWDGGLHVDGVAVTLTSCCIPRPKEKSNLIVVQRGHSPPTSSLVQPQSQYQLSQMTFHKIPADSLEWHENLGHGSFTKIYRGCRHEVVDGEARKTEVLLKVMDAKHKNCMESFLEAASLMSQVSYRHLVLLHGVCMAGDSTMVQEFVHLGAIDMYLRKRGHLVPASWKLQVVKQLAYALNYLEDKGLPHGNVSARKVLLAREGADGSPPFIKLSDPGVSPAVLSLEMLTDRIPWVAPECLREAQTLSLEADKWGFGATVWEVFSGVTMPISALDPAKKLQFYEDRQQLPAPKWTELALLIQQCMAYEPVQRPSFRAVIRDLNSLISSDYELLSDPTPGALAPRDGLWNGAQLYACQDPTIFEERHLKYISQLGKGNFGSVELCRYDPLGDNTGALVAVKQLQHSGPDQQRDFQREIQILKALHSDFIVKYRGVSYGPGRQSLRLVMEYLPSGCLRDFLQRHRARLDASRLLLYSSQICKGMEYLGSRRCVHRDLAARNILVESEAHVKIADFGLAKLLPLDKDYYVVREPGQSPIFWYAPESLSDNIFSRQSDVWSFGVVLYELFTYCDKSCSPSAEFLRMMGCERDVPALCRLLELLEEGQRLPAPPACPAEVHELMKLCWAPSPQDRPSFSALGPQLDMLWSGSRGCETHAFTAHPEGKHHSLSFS

[2] = biological target: Epithelial discoidin domain-containing receptor 1 (Homo sapiens, UniProt Q08345); test: Inhibition of DDR1 (unknown origin) by lanthascreen eu kinase activity assay
Chain of Epithelial discoidin domain-containing receptor 1 (Q08345 whole entry, the tested form may be a part): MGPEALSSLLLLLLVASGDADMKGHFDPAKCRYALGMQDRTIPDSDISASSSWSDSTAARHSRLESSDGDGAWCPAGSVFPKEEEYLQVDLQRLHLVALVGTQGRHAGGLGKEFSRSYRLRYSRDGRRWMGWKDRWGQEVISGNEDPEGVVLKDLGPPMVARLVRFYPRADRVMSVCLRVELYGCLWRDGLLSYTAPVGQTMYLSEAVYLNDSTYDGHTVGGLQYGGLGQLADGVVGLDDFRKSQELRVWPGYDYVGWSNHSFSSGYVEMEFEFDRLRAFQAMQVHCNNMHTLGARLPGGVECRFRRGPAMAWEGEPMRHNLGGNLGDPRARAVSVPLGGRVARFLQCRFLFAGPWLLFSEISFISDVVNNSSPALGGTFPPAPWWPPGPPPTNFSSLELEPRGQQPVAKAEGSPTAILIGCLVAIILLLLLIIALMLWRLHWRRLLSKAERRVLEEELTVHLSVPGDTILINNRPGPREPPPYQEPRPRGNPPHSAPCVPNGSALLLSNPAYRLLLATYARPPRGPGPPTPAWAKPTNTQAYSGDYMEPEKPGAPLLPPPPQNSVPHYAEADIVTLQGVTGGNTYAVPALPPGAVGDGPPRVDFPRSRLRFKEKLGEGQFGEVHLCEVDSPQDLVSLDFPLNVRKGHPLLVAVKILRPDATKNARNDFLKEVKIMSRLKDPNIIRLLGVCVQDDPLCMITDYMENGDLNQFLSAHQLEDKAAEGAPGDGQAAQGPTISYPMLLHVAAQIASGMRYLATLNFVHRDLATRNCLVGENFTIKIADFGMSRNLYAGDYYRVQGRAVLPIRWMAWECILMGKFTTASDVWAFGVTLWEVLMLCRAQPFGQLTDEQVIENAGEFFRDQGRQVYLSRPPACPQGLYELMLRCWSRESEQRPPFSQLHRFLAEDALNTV

[3] = Inhibition of Saccharomyces cerevisiae alpha-glucosidase using p-nitrophenyl-alpha-D -glucopyranoside as substrate pre-incubated for 10 mins followed by substrate addition measured after 15 mins by absorbance based analysis
RAW264.7 = test: Anti-inflammatory activity in mouse RAW264.7 cells assessed as inhibition of NO production; format: functional, cell-based
KB = test: Cytotoxicity against human KB cells assessed as cell growth inhibition; format: functional, cell-based
NCI-H187 = test: Cytotoxicity against human NCI-H187 cells assessed as cell growth inhibition; format: functional, cell-based
[4] = biological target: T2, Prostaglandin G/H synthase 2 (Homo sapiens, UniProt P35354); test: Inhibition of COX-2 (unknown origin) by fluorescent inhibitor screening assay
T2 sequence (P35354 whole entry): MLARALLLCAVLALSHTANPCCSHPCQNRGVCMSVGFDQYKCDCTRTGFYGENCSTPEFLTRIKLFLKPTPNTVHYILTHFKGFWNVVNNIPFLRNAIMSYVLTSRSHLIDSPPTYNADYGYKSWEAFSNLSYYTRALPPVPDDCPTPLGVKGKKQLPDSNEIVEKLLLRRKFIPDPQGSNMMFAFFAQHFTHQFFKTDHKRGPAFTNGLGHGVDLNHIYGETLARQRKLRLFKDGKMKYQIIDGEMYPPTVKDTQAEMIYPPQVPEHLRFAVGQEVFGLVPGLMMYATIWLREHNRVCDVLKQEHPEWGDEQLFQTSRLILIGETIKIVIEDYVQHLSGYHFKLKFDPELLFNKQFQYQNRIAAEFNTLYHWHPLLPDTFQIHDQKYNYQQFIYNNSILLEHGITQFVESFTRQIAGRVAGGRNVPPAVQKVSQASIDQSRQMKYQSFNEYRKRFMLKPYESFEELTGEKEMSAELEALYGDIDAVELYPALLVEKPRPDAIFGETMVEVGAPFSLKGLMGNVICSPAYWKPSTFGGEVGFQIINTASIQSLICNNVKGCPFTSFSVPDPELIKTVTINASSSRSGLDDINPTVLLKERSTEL

Acetylcholinesterase [5] = biological target: T3, Acetylcholinesterase (Homo sapiens, UniProt P22303); test: Inhibition of AChE (unknown origin)
T3 sequence (P22303 whole entry): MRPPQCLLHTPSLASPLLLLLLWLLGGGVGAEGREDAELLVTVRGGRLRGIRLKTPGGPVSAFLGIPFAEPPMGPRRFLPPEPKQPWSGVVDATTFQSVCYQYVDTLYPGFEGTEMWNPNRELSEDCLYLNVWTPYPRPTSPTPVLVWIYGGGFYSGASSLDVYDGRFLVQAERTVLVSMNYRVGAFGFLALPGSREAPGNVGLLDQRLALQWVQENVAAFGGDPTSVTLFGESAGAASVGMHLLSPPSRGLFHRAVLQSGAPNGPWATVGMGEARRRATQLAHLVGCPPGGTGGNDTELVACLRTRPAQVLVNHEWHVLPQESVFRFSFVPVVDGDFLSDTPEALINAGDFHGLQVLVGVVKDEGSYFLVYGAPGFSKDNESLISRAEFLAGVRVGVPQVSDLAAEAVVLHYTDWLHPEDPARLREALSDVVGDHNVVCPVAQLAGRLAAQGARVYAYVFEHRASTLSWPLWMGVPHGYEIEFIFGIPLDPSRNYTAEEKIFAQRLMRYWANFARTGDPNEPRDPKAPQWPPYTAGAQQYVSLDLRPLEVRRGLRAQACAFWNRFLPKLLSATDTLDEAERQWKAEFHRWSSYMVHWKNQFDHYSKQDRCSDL

[6] = biological target: T4, Tyrosine-protein phosphatase non-receptor type 1 (Homo sapiens, UniProt P18031); test: Inhibition of PTP1B (unknown origin) using pNPP as substrate by spectrophotometer analysis
T4 sequence (P18031 whole entry): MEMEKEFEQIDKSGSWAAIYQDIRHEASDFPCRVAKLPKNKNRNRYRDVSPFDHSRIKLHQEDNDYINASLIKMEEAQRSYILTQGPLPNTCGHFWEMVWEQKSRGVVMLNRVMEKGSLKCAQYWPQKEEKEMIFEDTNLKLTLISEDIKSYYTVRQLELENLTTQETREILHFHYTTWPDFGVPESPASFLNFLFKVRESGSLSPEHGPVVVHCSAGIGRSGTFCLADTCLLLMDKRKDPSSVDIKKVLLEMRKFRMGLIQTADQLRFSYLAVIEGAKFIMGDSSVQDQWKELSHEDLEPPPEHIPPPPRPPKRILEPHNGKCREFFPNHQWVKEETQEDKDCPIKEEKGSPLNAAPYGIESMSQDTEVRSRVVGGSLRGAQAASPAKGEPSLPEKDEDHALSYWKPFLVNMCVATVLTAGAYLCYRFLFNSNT

[7] = biological target: T5, Pancreatic triacylglycerol lipase (Sus scrofa, UniProt P00591); test: Inhibition of porcine pancreatic lipase using p-Nitrophenyl butyrate substrate incubated for 15 mins by spectrophotometer analysis
T5 sequence (P00591 whole entry): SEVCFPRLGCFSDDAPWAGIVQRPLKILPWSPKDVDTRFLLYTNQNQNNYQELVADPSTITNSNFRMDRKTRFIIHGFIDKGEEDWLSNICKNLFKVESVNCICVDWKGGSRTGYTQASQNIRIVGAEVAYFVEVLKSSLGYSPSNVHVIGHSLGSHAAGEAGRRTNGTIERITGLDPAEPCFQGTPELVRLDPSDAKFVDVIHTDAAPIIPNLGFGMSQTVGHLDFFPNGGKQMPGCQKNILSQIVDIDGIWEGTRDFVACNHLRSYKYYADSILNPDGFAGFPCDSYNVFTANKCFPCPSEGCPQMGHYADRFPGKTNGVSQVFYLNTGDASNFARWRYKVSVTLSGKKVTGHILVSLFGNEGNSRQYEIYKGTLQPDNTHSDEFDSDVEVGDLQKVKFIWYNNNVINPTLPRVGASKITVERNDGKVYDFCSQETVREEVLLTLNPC

Staphylococcus aureus = test: Antibacterial activity against Staphylococcus aureus assessed as bacterial growth inhibition; format: functional, organism-based
K562 = test: Cytotoxicity against human K562 cells assessed as cell growth inhibition by CCK-8 method; format: functional, cell-based
[8] = biological target: T2, Prostaglandin G/H synthase 2; test: Inhibition of human recombinant COX-2 pretreated with compound for 10 mins followed by substrate addition for 10 mins by fluorescent inhibitor screening assay
Acetylcholinesterase [9] = biological target: T3, Acetylcholinesterase; test: Inhibition of human erythrocyte AChE using acetylthiocholine iodide as substrate incubated for 20 mins by DTNB reagent based spectrophotometric method
[10] = biological target: T2, Prostaglandin G/H synthase 2; test: Inhibition of COX-2 (unknown origin)
HL-60 = test: Cytotoxicity against human HL-60 cells assessed as cell growth inhibition measured after 24 hrs by MTT assay; format: functional, cell-based; conditions: HL-60, 24 h
THP-1 = test: Cytotoxicity against human THP-1 cells assessed as cell growth inhibition measured after 24 hrs by MTT assay; format: functional, cell-based; conditions: THP-1, 24 h

CO[C@H]1OC(=O)[C@@]2(CC(=O)c3cc(O)ccc3O)C[C@@H]3[C@@H](C/C=C(\CC(=O)c4cc(O)ccc4O)C(=O)O)C(C=O)=CO[C@@H]3[C@@]12C (racemic)
IC50 [1]: < 10 µM | IC50 [2]: 8.2 µM

COC(=O)[C@H](Cc1ccccc1)N1Cc2c(cc(O)c(C/C=C(\C)CC/C=C(\C)C(=O)O)c2O)C1=O
IC50 [3]: 40.8 µM

CC1(C)CCC[C@]23C[C@](CC(=O)c4cc(O)ccc4O)(CC[C@@H]12)C(=O)O3
IC50 (RAW264.7): 5.9 µM

CO[C@H]1OC(=O)[C@@]2(CC(=O)c3cc(O)ccc3O)C[C@@H]3[C@@H](CCC4=C[C@H](c5cc(O)ccc5O)OC4=O)C(C=O)=CO[C@@H]3[C@@]12C (racemic)
IC50 [1]: < 10 µM

CC(=O)O[C@H]1C[C@@H](O)[C@@]2(C)[C@@H](CC[C@]3(C)[C@@H]2[C@@H](O)C[C@]2(C)Oc4oc(C)cc(=O)c4C[C@@H]32)C1(C)C
IC50 (KB): 32.7 µM | IC50 (NCI-H187): 32.7 µM

CO[C@H]1OC(=O)[C@@]2(CC(=O)c3cc(O)ccc3O)C[C@@H]3[C@@H](CCC4=C[C@@H](c5cc(O)ccc5O)OC4=O)C(C=O)=CO[C@@H]3[C@@]12C (racemic)
IC50 [1]: < 10 µM

C/C(=C\CC/C(C)=C/CCCC1(O)Oc2ccc(O)cc2C1=O)CO (stereo unspecified)
IC50 [4]: 1.38 µM

C/C(=C\CC/C(C)=C/C/C=C(/CC(=O)c1cc(O)ccc1O)C(=O)O)CO
IC50 [4]: 4.84 µM

COc1ccc(-c2cc3c(c(=O)o2)C[C@]2(O)[C@@]4(C)CC[C@@H](O)C(C)(C)[C@]4(O)CC[C@@]2(C)O3)cc1
IC50 (Acetylcholinesterase [5]): 0.64 µM

C[C@@H]1Cc2c3c(c(Cl)c(O)c2C(=O)O1)O[C@@]1(C)[C@@H](O)C[C@H]2C(C)(C)C(=O)C(Cl)(Cl)C[C@]2(C)[C@@H]1C3
IC50 [6]: 71.6 µM

CC(C)=CCC/C(C)=C/CCC1=C[C@]2(OC1=O)c1cc(O)ccc1OC(=O)[C@@]2(CC/C=C(\C)CCC=C(C)C)CC(=O)c1cc(O)ccc1O (racemic)
IC50 [7]: 27.3 µM

CC1(C)CCC[C@@]23C[C@@](CC(=O)c4cc(O)ccc4O)(CC[C@H]12)C(=O)O3
IC50 (RAW264.7): 6.1 µM

C/C(=C/CC/C(C)=C/CC/C(=C/C(=O)c1cc(O)ccc1O)C(=O)O)CO
IC50 [4]: 3.47 µM

C/C(=C/CC/C(C)=C/CC[C@]1(C(=O)O)CC(=O)c2cc(O)ccc2O1)C(=O)O
IC50 [4]: 1.05 µM

C=C(C)C1CCC2(C(=O)OCC)CC13Oc1c(C/C=C(/CC/C=C(\C)CCC=C(C)C)C(=O)O)cc(O)cc1-c1c(O)ccc(c13)O2 (racemic)
IC50 (Staphylococcus aureus): 5.43 µM

CC(C)=CCC/C(C)=C/CCC1=C[C@]2(OC1=O)c1cc(O)ccc1OC(=O)[C@@]2(CC/C=C(\C)CCC=C(C)C)CC(=O)c1cc(O)ccc1O
IC50 [7]: 2.5 µM

CO[C@@H]1c2c3c(cc(O)c2C(=O)O[C@@H]1C)O[C@@]1(C)[C@@H](O)C[C@H]2C(C)(C)C(=O)C=C[C@]2(C)[C@@H]1C3
IC50 [6]: 63.1 µM

C=C(C)C1CCC2(C(=O)OCC)CC13Oc1cc(C/C=C(/CC/C=C(\C)CCC=C(C)C)C(=O)O)c(O)cc1-c1c(O)ccc(c13)O2 (racemic)
IC50 (K562): 6.68 µM | IC50 (Staphylococcus aureus): 5.43 µM

CC(C)=CCCC1=C[C@]2(OC1=O)c1cc(O)ccc1OC(=O)[C@@]2(CC/C=C(\C)CCC=C(C)C)CC(=O)c1cc(O)ccc1O (racemic)
IC50 [8]: 1.29 µM

CC(C)=CCC/C(C)=C/CCC1=C[C@@]2(OC1=O)c1cc(O)ccc1OC(=O)[C@]2(CC/C=C(\C)CCC=C(C)C)CC(=O)c1cc(O)ccc1O
IC50 [7]: 4 µM

CCOC1(c2cc(O)ccc2O)C=C(CC/C=C(\C)CCC=C(C)C)C(=O)O1 (stereo unspecified)
IC50 (Acetylcholinesterase [9]): 7.37 µM

COC1(c2cc(O)ccc2O)C=C(CC[C@@H]2C(C)(C)[C@@H]3CC[C@]2(C)O3)C(=O)O1 (stereo partly specified)
IC50 [10]: 9.96 µM

CO[C@@H]1OC(=O)[C@]2(CC(=O)c3cc(O)ccc3O)C[C@H]3[C@H](C/C=C(\CC(=O)c4cc(O)ccc4O)C(=O)O)C(C=O)=CO[C@H]3[C@]12C
IC50 [2]: 6.9 µM

COC(=O)[C@H](CCCCN1Cc2c(cc(O)c(C/C=C(\C)CC/C=C(\C)C(=O)O)c2O)C1=O)N1Cc2c(cc(O)c(C/C=C(\C)CC/C=C(\C)C(=O)O)c2O)C1=O
IC50 [3]: 36.2 µM

C/C(=C\Cc1c(O)cc2c(c1O)CN(CCCC[C@@H](C(=O)O)N1Cc3c(cc(O)c(C/C=C(\C)CC/C=C(\C)C(=O)O)c3O)C1=O)C2=O)CC/C=C(\C)C(=O)O
IC50 [3]: 39.2 µM

C=C(C)C1CCC2(C(=O)OCC)CC13Oc1c(C/C=C(\CO)CC/C=C(\C)CCC=C(C)C)cc(O)cc1-c1c(O)ccc(c13)O2 (racemic)
IC50 (K562): 7.68 µM

CC(C)=CCC/C(C)=C/CCC1=C[C@]2(OC1=O)c1cc(O)ccc1OC(=O)[C@@]2(CCC=C(C)C)CC(=O)c1cc(O)ccc1O (racemic)
IC50 [8]: 1.29 µM

COC/C(C=O)=C\CCC1=CC(c2cc(O)ccc2O)OC1=O (stereo unspecified)
IC50 (Acetylcholinesterase [9]): 8.52 µM

O=C1C[C@]23CC[C@H](O)[C@]2(COC3=O)c2c(O)ccc(O)c21
IC50 [10]: 25.5 µM

CC(=O)O[C@@H]1C[C@@]2(C)Oc3cc(C)oc(=O)c3C[C@@H]2[C@@]2(C)C=CC(=O)C(C)(C)[C@H]12
IC50 (Acetylcholinesterase [5]): 13.6 µM

COC(=O)CC1=C(C)[C@@H]2C[C@@]3(C)C(=O)O[C@H]4O[C@@H](C)C(=O)[C@](C(=O)OC)([C@H]43)[C@@]2(C)CC=C1C(C)(C)OC
IC50 (HL-60): 7.9 µM | IC50 (THP-1): 11.3 µM

CC(=O)O[C@@H]1c2c3c(cc(O)c2C(=O)O[C@@H]1C)O[C@@]1(C)[C@@H](O)C[C@H]2C(C)(C)[C@@H](O)C=C[C@]2(C)[C@@H]1C3
IC50 [6]: 62.5 µM
